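Five concentrations, 48 hours, 96-well plates. GI50: concentration for 50% inhibition of growth. At the TGI there is no net growth.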
Experiments:
Test in all cases: NCI-60 cell line screen, 48 h
[1] = test system: UACC-62 melanoma
[2] = test system: 786-0 renal
[3] = test system: NCI-H226 lung
[4] = test system: SK-OV-3 ovarian
[5] = test system: MOLT-4 leukemia
[6] = test system: T-47D breast
[7] = test system: SF-539 CNS
[8] = test system: ACHN renal
[9] = test system: KM12 colon
[10] = test system: CAKI-1 renal
[11] = test system: SNB-19 CNS
[12] = test system: BT-549 breast
[13] = test system: SF-295 CNS
[14] = test system: LOX IMVI melanoma
[15] = test system: OVCAR-8 ovarian
[16] = test system: TK-10 renal
[17] = test system: SW-620 colon
[18] = test system: MDA-MB-435
[19] = test system: NCI-H460 lung
[20] = test system: U251 CNS
[21] = test system: OVCAR-5 ovarian
[22] = test system: NCI/ADR-RES ovarian
[23] = test system: MDA-MB-231 breast
[24] = test system: HT29 colon
[25] = test system: SK-MEL-28 melanoma
[26] = test system: M14 melanoma
[27] = test system: SN12C renal
[28] = test system: OVCAR-4 ovarian
[29] = test system: HCT-15 colon
[30] = test system: NCI-H522 lung
[31] = test system: IGROV1 ovarian
[32] = test system: HOP-62 NSCLC
[33] = test system: OVCAR-3 ovarian
[34] = test system: UACC-257 melanoma
[35] = test system: MCF7 breast
[36] = test system: SF-268 CNS
[37] = test system: RXF 393 renal
[38] = test system: HL-60(TB) leukemia
[39] = test system: SK-MEL-2 melanoma
[40] = test system: PC-3 prostate
[41] = test system: RPMI-8226 leukemia
[42] = test system: UO-31 renal
[43] = test system: A549 NSCLC
[44] = test system: SR leukemia
[45] = test system: K-562 leukemia
[46] = test system: HCT-116 colon
[47] = test system: SNB-75 CNS
[48] = test system: CCRF-CEM leukemia
[49] = test system: HS 578T breast
[50] = test system: COLO 205 colon
[51] = test system: NCI-H23 lung
[52] = test system: DU-145 prostate
[53] = test system: HCC-2998 colon
[54] = test system: HOP-92 NSCLC
[55] = test system: EKVX NSCLC
[56] = test system: SK-MEL-5 melanoma
[57] = test system: MALME-3M melanoma
[58] = test system: A498 renal

CCOP(=O)(C/C=C\Cn1cnc(C(N)=O)c1N)OCC was tested, and the GI50 [1] was 25.7 µM and the TGI [1] was 75.8 µM.
O=Cc1ccccc1B(O)O was tested, and the TGI [2] was greater than 100 µM, the TGI [3] was greater than 100 µM and the TGI [4] was greater than 100 µM. It also gave a TGI [5] of 26.1 µM, a TGI [6] of 62.4 µM and a TGI [7] greater than 100 µM. The TGI [8] was greater than 100 µM, the TGI [1] was greater than 100 µM and the TGI [9] was greater than 100 µM. For the same compound, the TGI [10] was greater than 100 µM, the TGI [11] was greater than 100 µM and the TGI [12] was 95.9 µM. The TGI [13] was greater than 100 µM, the TGI [14] was greater than 100 µM and the TGI [15] was greater than 100 µM. For the same compound, the TGI [16] was greater than 100 µM, the TGI [17] was greater than 100 µM and the TGI [18] was greater than 100 µM. The TGI [19] was greater than 100 µM, the TGI [20] was greater than 100 µM and the TGI [21] was greater than 100 µM. The TGI [22] was greater than 100 µM, the TGI [23] was greater than 100 µM and the TGI [24] was greater than 100 µM. It also gave a TGI [25] greater than 100 µM, a TGI [26] greater than 100 µM and a TGI [27] greater than 100 µM. It also gave a TGI [28] greater than 100 µM, a TGI [29] greater than 100 µM and a TGI [30] of 97.9 µM. The TGI [31] was greater than 100 µM, the TGI [32] was greater than 100 µM and the TGI [33] was greater than 100 µM. For the same compound, the TGI [34] was greater than 100 µM, the TGI [35] was greater than 100 µM and the TGI [36] was greater than 100 µM. It also gave a TGI [37] greater than 100 µM, a TGI [38] greater than 100 µM and a TGI [39] greater than 100 µM. It also gave a TGI [40] greater than 100 µM, a TGI [41] of 0.0472 µM and a TGI [42] greater than 100 µM. It also gave a TGI [43] of 38.5 µM, a TGI [44] of 2.08 µM and a TGI [45] greater than 100 µM. It also gave a TGI [46] greater than 100 µM, a TGI [47] greater than 100 µM and a TGI [48] of 40 µM. The TGI [49] was 49.3 µM and the TGI [50] was 40.3 µM.
Cc1sc2nc(-c3ccc([N+](=O)[O-])cc3)c(/C=N/N=C(N)N)n2c1C showed a TGI [2] of 0.637 µM, a TGI [4] of 3.12 µM and a TGI [6] of 3.1 µM. For the same compound, the TGI [7] was 3.26 µM, the TGI [51] was 2.73 µM and the TGI [8] was 2.61 µM. The TGI [9] was 1.03 µM, the TGI [12] was 2.79 µM and the TGI [13] was 2.42 µM. For the same compound, the TGI [15] was 1.8 µM, the TGI [16] was 2.84 µM and the TGI [18] was 2.25 µM. For the same compound, the TGI [20] was 0.358 µM, the TGI [21] was 2.81 µM and the TGI [52] was 2.74 µM. The TGI [22] was 11 µM, the TGI [23] was 1.17 µM and the TGI [24] was 1.63 µM. The TGI [25] was 1.37 µM, the TGI [26] was 1.99 µM and the TGI [29] was 2.82 µM. For the same compound, the TGI [31] was 2.71 µM, the TGI [32] was 2.12 µM and the TGI [34] was 2.77 µM. For the same compound, the TGI [53] was 0.693 µM, the TGI [54] was 2.81 µM and the TGI [40] was 2.65 µM. It also gave a TGI [42] of 2.98 µM, a TGI [43] of 2.88 µM and a TGI [55] of 2.41 µM. The TGI [46] was 0.427 µM, the TGI [49] was 3.49 µM and the TGI [50] was 0.809 µM.
COc1cccc2c1/c(=C/c1ccc(N(C)C)cc1)c1cc(-c3ccccc3)[n+](C)n12 showed a TGI [2] of 1.1 µM, a TGI [5] of 0.623 µM and a TGI [7] of 14.9 µM. It also gave a TGI [56] of 0.312 µM, a TGI [8] of 0.8 µM and a TGI [11] of 1.72 µM. The TGI [12] was 0.774 µM, the TGI [57] was 0.684 µM and the TGI [16] was 1.03 µM. It also gave a TGI [18] of 1.65 µM, a TGI [19] of 0.949 µM and a TGI [20] of 1.32 µM. The TGI [21] was 1.66 µM, the TGI [52] was 1.75 µM and the TGI [22] was greater than 100 µM. For the same compound, the TGI [23] was 2.2 µM, the TGI [24] was 0.129 µM and the TGI [26] was 1.08 µM. It also gave a TGI [28] of 3.16 µM, a TGI [32] of 2.08 µM and a TGI [33] of 1.5 µM. The TGI [34] was 0.692 µM, the TGI [35] was 1.29 µM and the TGI [36] was 1.37 µM. The TGI [37] was 1.94 µM, the TGI [58] was 1.3 µM and the TGI [53] was 1.08 µM. For the same compound, the TGI [41] was 1.27 µM, the TGI [42] was 0.802 µM and the TGI [43] was 2.5 µM. For the same compound, the TGI [44] was 0.899 µM, the TGI [45] was 1.39 µM and the TGI [46] was 0.765 µM. The TGI [47] was 0.997 µM and the TGI [48] was 1.45 µM.

From PubChem BioAssay (NCI)
